This is an account of results in patent publication US10183949B2, “Pyrimidinone derivative having autotaxin-inhibitory activity” (The University of Tokyo, priority 2014, dated 2019).

The term IC50 denotes the concentration at which inhibition is half-maximal.

In the assay the target is T1, Human autotaxin enzyme (Homo sapiens, UniProt Q13822).
T1 construct: purchased R&D System
Put plainly: Evaluation of autotaxin inhibitor, 18:0 Lyso PC / choline assay (Test Example 2). Type of assay: biochemical. The following applies: human autotaxin enzyme, 18:0 Lyso PC substrate, choline assay, room temperature 2 hours; read-out: Inhibitor activity (IC50). The procedure: Solution B containing 100 mM Tris-HCl buffer (pH7.5), 150 mM NaCl, 5 mM MgCl2, and 0.05% Triton X-100 was prepared. Human autotaxin enzyme (purchased from R&D System) was diluted with Solution B, and 2.5 μl of which was added to a solution of test compound in DMSO. Furthermore, 2.5 μl of 200 μM 18:0 Lyso PC (purchased from Avanti Polar Lipids) in Solution B was added and allowed to react at room temperature for 2 hours. After completion of the reaction, 15 μl of the coline assay reagent. (100 mM Tris-HCl buffer (pH7.5), 5 mM. MgCl2, 77 μg/ml coline oxidase, 10 μg/ml peroxydase, 25μM 10-acetyl-3,7-dihydroxyphenoxazine, and excess autotaxin inhibitor) was added and allowed to react at room temperature for 20 minutes. The fluorescent dye Resorufin, which was produced by the reaction, was detected. The fluorescence was detected using ViewLux
(PerkinElmer, Inc.) with a excitation wavelength of 531 nm and a fluorescence wavelength of 598 nm.
The percent inhibition of the test compound was calculated by assuming the sample with no test compound as 0% inhibition and the sample with no enzyme as 100% inhibition, and the percent inhibitions at different concentrations of the test compound were plotted to obtain a concentration-dependent curve.
In the case of `O=C(Cn1c(CCCC(F)(F)F)nc(-c2ccc(Cl)cc2)cc1=O)N1CCN(CCO)CC1` [Compound I-0131], the IC50 is 0.01 to 0.1 µM.
The value for `CN(CC(O)CO)C(=O)Cn1c(CCCC(F)(F)F)nc(-c2ccc(Cl)cc2)cc1=O` (centres unmarked) [Compound I-0132] was 0.1 to 1 µM; that for `NS(=O)(=O)CCNC(=O)Cn1c(CCCC(F)(F)F)nc(-c2ccc(Cl)cc2)cc1=O` [Compound I-0133] was 0.01 to 0.1 µM.
Under `CC(C)(O)CNC(=O)Cn1c(CCCC(F)(F)F)nc(-c2ccc(Cl)cc2)cc1=O` [Compound I-0134] stands under 0.01 µM; under `O=C(Cn1c(CCCC(F)(F)F)nc(-c2ccc(Cl)cc2)cc1=O)NC(CO)(CO)CO` [Compound I-0135], 0.01 to 0.1 µM; under `N#CCCN1CCN(C(=O)Cn2c(CCCC(F)(F)F)nc(-c3ccc(Cl)cc3)cc2=O)CC1` [Compound I-0136], 0.1 to 1 µM.
The value for `N#CCCNC(=O)Cn1c(CCCC(F)(F)F)nc(-c2ccc(Cl)cc2)cc1=O` [Compound I-0137] was 0.01 to 0.1 µM; that for `O=C(Cn1c(CCCC(F)(F)F)nc(-c2ccc(Cl)cc2)cc1=O)NCCCS(=O)(=O)O` [Compound I-0138] was under 0.01 µM; that for `O=C(Cn1c(CCCC(F)(F)F)nc(-c2ccc(Cl)cc2)cc1=O)N1CCOC(CO)C1` (centres unmarked) [Compound I-0139] was 0.01 to 0.1 µM.
Consider `O=C(Cn1c(CCCC(F)(F)F)nc(-c2ccc(Cl)cc2)cc1=O)NCCOCCOCCO` [Compound I-0140], for which the IC50 lay within 0.1 to 1 µM.
Under `Cc1noc(CNC(=O)Cn2c(CCCC(F)(F)F)nc(-c3ccc(Cl)cc3)cc2=O)n1` [Compound I-0141] stands 0.01 to 0.1 µM; under `O=C(Cn1c(CCCC(F)(F)F)nc(-c2ccc(Cl)cc2)cc1=O)NCc1ccnc(O)c1` [Compound I-0142], 0.1 to 1 µM.
Under `O=C(Cn1c(CCCC(F)(F)F)nc(-c2ccc(Cl)cc2)cc1=O)NC1CCS(=O)(=O)C1` (centres unmarked) [Compound I-0143] stands 0.01 to 0.1 µM; under `CCC(CO)(CO)NC(=O)Cn1c(CCCC(F)(F)F)nc(-c2ccc(Cl)cc2)cc1=O` [Compound I-0144], 0.01 to 0.1 µM.
Under `CCNS(=O)(=O)CCNC(=O)Cn1c(CCCC(F)(F)F)nc(-c2ccc(Cl)cc2)cc1=O` [Compound I-0145] stands 0.01 to 0.1 µM; under `O=C(Cn1c(CCCC(F)(F)F)nc(-c2ccc(Cl)cc2)cc1=O)NCCN(CCO)CCO` [Compound I-0146], 0.1 to 1 µM; under `O=C(Cn1c(CCCC(F)(F)F)nc(-c2ccc(Cl)cc2)cc1=O)NCC1(CO)COC1` [Compound I-0147], 0.01 to 0.1 µM.
Regarding `CC(C)(O)CN1CCN(C(=O)Cn2c(CCCC(F)(F)F)nc(-c3ccc(Cl)cc3)cc2=O)CC1` [Compound I-0148], the IC50 lay in the range of 0.1 to 1 µM.
As for `O=C(Cn1c(=O)cc(-c2ccc(Cl)cc2)[nH]c1=O)NC(Cc1ccccc1)C(=O)O` (centres unmarked) [Compound I-0150], the IC50 was at least 1 µM.
Under `CCCCCn1c(-c2ccc(Cl)cc2)cc(=O)n(CC(=O)NC(Cc2ccccc2)C(=O)O)c1=O` (centres unmarked) [Compound I-0151] stands 0.1 to 1 µM; under `CCCCCOc1nc(-c2ccc(Cl)cc2)cc(=O)n1CC(=O)NC(Cc1ccccc1)C(=O)O` (centres unmarked) [Compound I-0152], 0.01 to 0.1 µM.
With `O=C(c1cccc(Cn2c(CCCC(F)(F)F)nc(-c3ccc(Cl)cc3)cc2=O)c1)N1CCSCC1` [Compound I-0153], the IC50 is 0.01 to 0.1 µM.
Turning to `O=C(NCCS(=O)(=O)O)c1cccc(Cn2c(CCCC(F)(F)F)nc(-c3ccc(Cl)cc3)cc2=O)c1` [Compound I-0154], the IC50 was in the range of 0.01 to 0.1 µM.
The value for `CN(CC#N)C(=O)c1cccc(Cn2c(CCCC(F)(F)F)nc(-c3ccc(Cl)cc3)cc2=O)c1` [Compound I-0155] was 0.1 to 1 µM; that for `CC(=O)NCCNC(=O)c1cccc(Cn2c(CCCC(F)(F)F)nc(-c3ccc(Cl)cc3)cc2=O)c1` [Compound I-0156] was 0.1 to 1 µM.
The value for `CN(CCC#N)C(=O)c1cccc(Cn2c(CCCC(F)(F)F)nc(-c3ccc(Cl)cc3)cc2=O)c1` [Compound I-0157] was 0.01 to 0.1 µM.
The value for `O=C(c1cccc(Cn2c(CCCC(F)(F)F)nc(-c3ccc(Cl)cc3)cc2=O)c1)N1CCC(O)CC1` [Compound I-0158] was 0.01 to 0.1 µM; that for `O=C(c1cccc(Cn2c(CCCC(F)(F)F)nc(-c3ccc(Cl)cc3)cc2=O)c1)N1CCC(CO)CC1` [Compound I-0159] was under 0.01 µM.
As to `O=C(c1cccc(Cn2c(CCCC(F)(F)F)nc(-c3ccc(Cl)cc3)cc2=O)c1)N1CCOCC1` [Compound I-0160], the IC50 fell in the range of 0.01 to 0.1 µM.
For the molecule `COCCCNC(=O)c1cccc(Cn2c(CCCC(F)(F)F)nc(-c3ccc(Cl)cc3)cc2=O)c1` [Compound I-0161], the IC50 fell in the range of 0.1 to 1 µM.
Under `O=C(NCCOCCO)c1cccc(Cn2c(CCCC(F)(F)F)nc(-c3ccc(Cl)cc3)cc2=O)c1` [Compound I-0162] stands 0.1 to 1 µM; under `O=C(NCCCO)c1cccc(Cn2c(CCCC(F)(F)F)nc(-c3ccc(Cl)cc3)cc2=O)c1` [Compound I-0163], 0.1 to 1 µM; under `N#CCNC(=O)c1cccc(Cn2c(CCCC(F)(F)F)nc(-c3ccc(Cl)cc3)cc2=O)c1` [Compound I-0164], 0.1 to 1 µM.
For the molecule `O=C(NC(CO)CO)c1cccc(Cn2c(CCCC(F)(F)F)nc(-c3ccc(Cl)cc3)cc2=O)c1` [Compound I-0165], the IC50 lay within 0.1 to 1 µM.
With `C[C@@H]1CN(C(=O)c2cccc(Cn3c(CCCC(F)(F)F)nc(-c4ccc(Cl)cc4)cc3=O)c2)C[C@H](C)O1` [Compound I-0166], the IC50 is 0.1 to 1 µM.
Under `O=C(NCC(O)c1ccccc1)c1cccc(Cn2c(CCCC(F)(F)F)nc(-c3ccc(Cl)cc3)cc2=O)c1` (centres unmarked) [Compound I-0167] stands 0.1 to 1 µM; under `NC(=O)CNC(=O)c1cccc(Cn2c(CCCC(F)(F)F)nc(-c3ccc(Cl)cc3)cc2=O)c1` [Compound I-0168], 0.1 to 1 µM.
Under `O=C(NCc1cnccn1)c1cccc(Cn2c(CCCC(F)(F)F)nc(-c3ccc(Cl)cc3)cc2=O)c1` [Compound I-0169] stands 0.1 to 1 µM.
Under `O=C(NCc1cc(=O)[nH]o1)c1cccc(Cn2c(CCCC(F)(F)F)nc(-c3ccc(Cl)cc3)cc2=O)c1` [Compound I-0170] stands 0.01 to 0.1 µM.
`O=C(NCCN1CCNC1=O)c1cccc(Cn2c(CCCC(F)(F)F)nc(-c3ccc(Cl)cc3)cc2=O)c1` [Compound I-0171]: the IC50 lay within 0.1 to 1 µM.
`O=C(NCCO)c1cccc(Cn2c(CCCC(F)(F)F)nc(-c3ccc(Cl)cc3)cc2=O)c1` [Compound I-0172]: the IC50 was in the range of 0.1 to 1 µM.
In the case of `O=C(NCC(O)CO)c1cccc(Cn2c(CCCC(F)(F)F)nc(-c3ccc(Cl)cc3)cc2=O)c1` (centres unmarked) [Compound I-0173], the IC50 lay within 0.1 to 1 µM.
The value for `O=C(N[C@H]1CC[C@H](O)CC1)c1cccc(Cn2c(CCCC(F)(F)F)nc(-c3ccc(Cl)cc3)cc2=O)c1` [Compound I-0174] was 0.1 to 1 µM; that for `O=C(NCC1(CO)CC1)c1cccc(Cn2c(CCCC(F)(F)F)nc(-c3ccc(Cl)cc3)cc2=O)c1` [Compound I-0175] was 0.1 to 1 µM.
Under `O=C(NCc1ccc(O)nc1)c1cccc(Cn2c(CCCC(F)(F)F)nc(-c3ccc(Cl)cc3)cc2=O)c1` [Compound I-0176] stands 0.1 to 1 µM.
Under `CS(=O)(=O)CCNC(=O)c1cccc(Cn2c(CCCC(F)(F)F)nc(-c3ccc(Cl)cc3)cc2=O)c1` [Compound I-0177] stands 0.1 to 1 µM.
For the molecule `O=C(NC(CO)c1ccccc1)c1cccc(Cn2c(CCCC(F)(F)F)nc(-c3ccc(Cl)cc3)cc2=O)c1` (centres unmarked) [Compound I-0178], the IC50 fell in the range of 0.1 to 1 µM.
Under `O=C1CCN(C(=O)c2cccc(Cn3c(CCCC(F)(F)F)nc(-c4ccc(Cl)cc4)cc3=O)c2)CCN1` [Compound I-0179] stands 0.01 to 0.1 µM; under `CNC(=O)c1cccc(Cn2c(CCCC(F)(F)F)nc(-c3ccc(Cl)cc3)cc2=O)c1` [Compound I-0180], 0.1 to 1 µM; under `CN(C)C(=O)c1cccc(Cn2c(CCCC(F)(F)F)nc(-c3ccc(Cl)cc3)cc2=O)c1` [Compound I-0181], 0.01 to 0.1 µM.
The value for `CNC(=O)CNC(=O)c1cccc(Cn2c(CCCC(F)(F)F)nc(-c3ccc(Cl)cc3)cc2=O)c1` [Compound I-0182] was 0.1 to 1 µM; that for `CN(C)C(=O)CNC(=O)c1cccc(Cn2c(CCCC(F)(F)F)nc(-c3ccc(Cl)cc3)cc2=O)c1` [Compound I-0183] was 0.01 to 0.1 µM; that for `NC(=O)CCCNC(=O)c1cccc(Cn2c(CCCC(F)(F)F)nc(-c3ccc(Cl)cc3)cc2=O)c1` [Compound I-0184] was 0.1 to 1 µM.
Under `CC1(NC(=O)c2cccc(Cn3c(CCCC(F)(F)F)nc(-c4ccc(Cl)cc4)cc3=O)c2)COC1` [Compound I-0185] stands 0.1 to 1 µM; under `NS(=O)(=O)CCNC(=O)c1cccc(Cn2c(CCCC(F)(F)F)nc(-c3ccc(Cl)cc3)cc2=O)c1` [Compound I-0186], 0.1 to 1 µM.
For `CC(C)(O)CNC(=O)c1cccc(Cn2c(CCCC(F)(F)F)nc(-c3ccc(Cl)cc3)cc2=O)c1` [Compound I-0187], the IC50 lay within 0.1 to 1 µM.
Under `O=C(NC(CO)(CO)CO)c1cccc(Cn2c(CCCC(F)(F)F)nc(-c3ccc(Cl)cc3)cc2=O)c1` [Compound I-0188] stands 0.1 to 1 µM.
Turning to `Cc1nc(CNC(=O)c2cccc(Cn3c(CCCC(F)(F)F)nc(-c4ccc(Cl)cc4)cc3=O)c2)no1` [Compound I-0189], the IC50 lay in the range of 0.1 to 1 µM.
Under `Cc1nonc1CNC(=O)c1cccc(Cn2c(CCCC(F)(F)F)nc(-c3ccc(Cl)cc3)cc2=O)c1` [Compound I-0190] stands 0.1 to 1 µM.
